Reference: article PMC8708872, “Discovery of a Novel Template, 7-Substituted 7-Deaza-4′-Thioadenosine Derivatives as Multi-Kinase Inhibitors” (Pharmaceuticals, 2021)

Assays:
Type in all cases: binding
PIK3C2B = target: T1, PIK3C2B (Homo sapiens, UniProt O00750); assay: Kinome scan; details: 1000 nM
T1 construct: purchased Eurofins DiscoverX Corporation
Method: (§1) The kinome scan assays were carried out at Eurofins DiscoverX Corporation. For kinome scan profiling of compound 1g, it was screened at 1μM against 96 kinases (N = 2 independent experiments). The results for binding interactions are reported as % inhibition, where higher values indicate strong affinity; see the Supporting Information, Table S1 for full kinome profile.

AURKB = target: T2, AURKB (Homo sapiens, UniProt Q96GD4); assay: Kinome scan; details: 1000 nM
T2 construct: purchased Eurofins DiscoverX Corporation
Method: as §1

GSK3B = target: T3, GSK3B (Homo sapiens, UniProt P49841); assay: Kinome scan; details: 1000 nM
T3 construct: purchased Eurofins DiscoverX Corporation
T3 sequence (P49841 whole entry): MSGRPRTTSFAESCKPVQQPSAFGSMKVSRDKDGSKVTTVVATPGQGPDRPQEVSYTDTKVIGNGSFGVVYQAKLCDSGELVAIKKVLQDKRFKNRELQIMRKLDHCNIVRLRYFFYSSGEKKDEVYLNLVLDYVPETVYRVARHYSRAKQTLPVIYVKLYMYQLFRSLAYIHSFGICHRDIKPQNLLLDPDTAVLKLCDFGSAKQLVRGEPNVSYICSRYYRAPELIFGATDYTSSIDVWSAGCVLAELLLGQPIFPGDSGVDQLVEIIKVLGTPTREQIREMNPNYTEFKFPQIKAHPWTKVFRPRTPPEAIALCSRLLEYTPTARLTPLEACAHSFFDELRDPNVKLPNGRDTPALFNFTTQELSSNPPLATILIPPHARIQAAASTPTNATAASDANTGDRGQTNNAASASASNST
Method: as §1

CSNK1G2 = target: T4, CSNK1G2 (Homo sapiens, UniProt P78368); assay: Kinome scan; details: 1000 nM
T4 construct: purchased Eurofins DiscoverX Corporation
Method: as §1

MAP3K4 = target: T5, MAP3K4 (Homo sapiens, UniProt Q9Y6R4); assay: Kinome scan; details: 1000 nM
T5 construct: purchased Eurofins DiscoverX Corporation
Method: as §1

[1] = target: T6, TYK2(JH1domain-catalytic) (Homo sapiens, UniProt P29597); assay: Kinome scan; details: 1000 nM
T6 construct: TYK2(JH1domain-catalytic); purchased Eurofins DiscoverX Corporation
T6 sequence (P29597 897-1176 limits assumed): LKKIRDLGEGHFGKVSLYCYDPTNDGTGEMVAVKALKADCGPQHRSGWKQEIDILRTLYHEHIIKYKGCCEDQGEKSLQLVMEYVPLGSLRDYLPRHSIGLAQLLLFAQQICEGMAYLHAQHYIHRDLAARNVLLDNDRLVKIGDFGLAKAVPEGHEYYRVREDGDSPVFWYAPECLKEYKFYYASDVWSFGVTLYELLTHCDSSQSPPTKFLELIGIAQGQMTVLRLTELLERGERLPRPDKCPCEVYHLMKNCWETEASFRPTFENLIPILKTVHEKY
Method: as §1

ULK2 = target: T7, ULK2 (Homo sapiens, UniProt Q8IYT8); assay: Kinome scan; details: 1000 nM
T7 construct: purchased Eurofins DiscoverX Corporation
Method: as §1

PAK2 = target: T8, PAK2 (Homo sapiens, UniProt Q13177); assay: Kinome scan; details: 1000 nM
T8 construct: purchased Eurofins DiscoverX Corporation
Method: as §1

PLK1 = target: T9, PLK1 (Homo sapiens, UniProt P53350); assay: Kinome scan; details: 1000 nM
T9 construct: purchased Eurofins DiscoverX Corporation
Method: as §1

DYRK1B = target: T10, DYRK1B (Homo sapiens, UniProt Q9Y463); assay: Kinome scan
T10 construct: purchased Eurofins DiscoverX Corporation
T10 sequence (Q9Y463 whole entry): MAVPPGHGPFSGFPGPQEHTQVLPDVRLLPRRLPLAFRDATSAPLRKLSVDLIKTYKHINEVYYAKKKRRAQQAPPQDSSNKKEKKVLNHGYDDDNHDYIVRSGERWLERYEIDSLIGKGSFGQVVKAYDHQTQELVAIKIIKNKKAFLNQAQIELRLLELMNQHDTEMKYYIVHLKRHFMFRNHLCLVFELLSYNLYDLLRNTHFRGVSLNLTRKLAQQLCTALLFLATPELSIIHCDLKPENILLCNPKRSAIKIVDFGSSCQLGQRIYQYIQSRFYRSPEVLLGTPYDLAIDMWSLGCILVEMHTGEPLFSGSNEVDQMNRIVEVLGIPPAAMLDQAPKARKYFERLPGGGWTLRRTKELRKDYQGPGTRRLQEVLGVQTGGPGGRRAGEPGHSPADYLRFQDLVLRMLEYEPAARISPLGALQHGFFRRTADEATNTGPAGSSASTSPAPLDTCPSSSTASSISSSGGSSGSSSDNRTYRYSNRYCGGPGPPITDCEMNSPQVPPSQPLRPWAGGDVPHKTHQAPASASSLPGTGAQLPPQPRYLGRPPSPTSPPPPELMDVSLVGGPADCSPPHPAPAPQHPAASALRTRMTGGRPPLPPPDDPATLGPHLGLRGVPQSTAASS
Method: as §1

AURKA = target: T11, AURKA (Homo sapiens, UniProt O14965); assay: Kinome scan; details: 1000 nM
T11 construct: purchased Eurofins DiscoverX Corporation
Method: as §1

CHEK1 = target: T12, CHEK1 (Homo sapiens, UniProt O14757); assay: Kinome scan; details: 1000 nM
T12 construct: purchased Eurofins DiscoverX Corporation
Method: as §1

SNARK = target: T13, SNARK (Homo sapiens, UniProt Q9H093); assay: Kinome scan; details: 1000 nM
T13 construct: purchased Eurofins DiscoverX Corporation
Method: as §1

INSR = target: T14, INSR (Homo sapiens, UniProt P06213); assay: Kinome scan; details: 1000 nM
T14 construct: purchased Eurofins DiscoverX Corporation
T14 sequence (P06213 28-1382): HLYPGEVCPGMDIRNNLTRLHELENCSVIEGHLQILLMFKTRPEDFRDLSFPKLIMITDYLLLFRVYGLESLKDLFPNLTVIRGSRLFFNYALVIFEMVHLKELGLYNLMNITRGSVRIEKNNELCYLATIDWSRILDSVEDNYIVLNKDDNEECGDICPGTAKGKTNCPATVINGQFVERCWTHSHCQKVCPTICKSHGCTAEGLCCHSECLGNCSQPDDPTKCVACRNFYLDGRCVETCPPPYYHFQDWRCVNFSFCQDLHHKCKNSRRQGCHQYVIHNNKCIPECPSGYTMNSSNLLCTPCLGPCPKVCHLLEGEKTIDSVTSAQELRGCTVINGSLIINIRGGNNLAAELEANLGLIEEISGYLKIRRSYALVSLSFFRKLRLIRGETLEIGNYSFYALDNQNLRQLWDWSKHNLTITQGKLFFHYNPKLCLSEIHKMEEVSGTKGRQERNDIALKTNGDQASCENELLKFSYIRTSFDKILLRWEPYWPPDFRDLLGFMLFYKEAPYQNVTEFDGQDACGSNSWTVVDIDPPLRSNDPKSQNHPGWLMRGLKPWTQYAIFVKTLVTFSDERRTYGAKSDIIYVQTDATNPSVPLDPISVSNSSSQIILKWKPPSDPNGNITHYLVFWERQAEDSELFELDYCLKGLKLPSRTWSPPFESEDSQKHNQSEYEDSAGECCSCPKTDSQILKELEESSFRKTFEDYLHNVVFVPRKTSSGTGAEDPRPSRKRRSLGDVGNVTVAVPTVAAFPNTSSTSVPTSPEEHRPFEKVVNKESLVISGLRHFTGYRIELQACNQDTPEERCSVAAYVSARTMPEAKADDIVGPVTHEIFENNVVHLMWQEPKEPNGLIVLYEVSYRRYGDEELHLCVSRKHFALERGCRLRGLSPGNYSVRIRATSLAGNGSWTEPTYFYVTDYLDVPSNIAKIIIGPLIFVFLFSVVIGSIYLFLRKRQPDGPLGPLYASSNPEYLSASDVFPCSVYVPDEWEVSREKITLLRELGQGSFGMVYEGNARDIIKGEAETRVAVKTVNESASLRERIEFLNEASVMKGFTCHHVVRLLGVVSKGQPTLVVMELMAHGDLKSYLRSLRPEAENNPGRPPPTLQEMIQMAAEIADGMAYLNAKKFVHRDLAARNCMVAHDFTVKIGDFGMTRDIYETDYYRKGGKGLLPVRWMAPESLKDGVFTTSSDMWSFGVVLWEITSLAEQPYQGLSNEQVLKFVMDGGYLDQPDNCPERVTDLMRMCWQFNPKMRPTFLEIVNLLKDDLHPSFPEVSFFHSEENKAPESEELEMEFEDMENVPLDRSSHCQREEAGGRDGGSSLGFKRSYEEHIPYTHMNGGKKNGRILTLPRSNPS
Method: as §1

CSF1R = target: T15, CSF1R (Homo sapiens, UniProt P07333); assay: Kinome scan; details: 1000 nM
T15 construct: purchased Eurofins DiscoverX Corporation
Method: as §1

ROCK2 = target: T16, ROCK2 (Homo sapiens, UniProt O75116); assay: Kinome scan; details: 1000 nM
T16 construct: purchased Eurofins DiscoverX Corporation
T16 sequence (O75116 whole entry): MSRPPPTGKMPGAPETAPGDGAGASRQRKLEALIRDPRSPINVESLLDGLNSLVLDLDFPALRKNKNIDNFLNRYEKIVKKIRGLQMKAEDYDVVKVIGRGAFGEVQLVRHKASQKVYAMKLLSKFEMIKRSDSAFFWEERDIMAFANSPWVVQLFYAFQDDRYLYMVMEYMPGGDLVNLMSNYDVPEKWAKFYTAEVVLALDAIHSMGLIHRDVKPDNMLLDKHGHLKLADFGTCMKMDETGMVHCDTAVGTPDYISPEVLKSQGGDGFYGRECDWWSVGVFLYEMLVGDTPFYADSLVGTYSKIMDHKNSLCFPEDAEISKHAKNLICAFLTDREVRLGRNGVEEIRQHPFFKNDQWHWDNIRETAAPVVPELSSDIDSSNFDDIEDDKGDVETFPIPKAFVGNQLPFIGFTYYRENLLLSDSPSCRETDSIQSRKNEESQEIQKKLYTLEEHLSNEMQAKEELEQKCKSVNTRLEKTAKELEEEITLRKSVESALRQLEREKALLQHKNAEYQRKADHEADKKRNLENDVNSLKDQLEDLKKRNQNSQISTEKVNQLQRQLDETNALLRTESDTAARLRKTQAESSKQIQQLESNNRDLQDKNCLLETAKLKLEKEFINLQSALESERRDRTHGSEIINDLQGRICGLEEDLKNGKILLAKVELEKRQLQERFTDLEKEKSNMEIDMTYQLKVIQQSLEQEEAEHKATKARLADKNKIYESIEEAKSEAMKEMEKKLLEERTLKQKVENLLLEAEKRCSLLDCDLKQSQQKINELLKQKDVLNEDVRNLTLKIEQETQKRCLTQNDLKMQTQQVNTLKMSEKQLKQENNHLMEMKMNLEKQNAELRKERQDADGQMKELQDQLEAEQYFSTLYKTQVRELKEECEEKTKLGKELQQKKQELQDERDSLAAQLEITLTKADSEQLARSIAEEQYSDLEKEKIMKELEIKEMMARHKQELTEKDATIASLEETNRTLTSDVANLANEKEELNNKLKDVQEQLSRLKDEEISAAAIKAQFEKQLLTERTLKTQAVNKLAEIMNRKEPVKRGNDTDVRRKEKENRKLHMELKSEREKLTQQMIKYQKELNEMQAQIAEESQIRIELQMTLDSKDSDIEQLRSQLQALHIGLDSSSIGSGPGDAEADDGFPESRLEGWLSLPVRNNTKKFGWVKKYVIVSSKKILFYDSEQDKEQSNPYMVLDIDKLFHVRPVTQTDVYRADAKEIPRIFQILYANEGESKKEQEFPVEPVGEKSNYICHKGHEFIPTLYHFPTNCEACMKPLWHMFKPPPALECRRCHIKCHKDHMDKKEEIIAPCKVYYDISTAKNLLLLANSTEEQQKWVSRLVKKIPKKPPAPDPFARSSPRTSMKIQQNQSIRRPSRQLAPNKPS
Method: as §1

MARK3 = target: T17, MARK3 (Homo sapiens, UniProt P27448); assay: Kinome scan; details: 1000 nM
T17 construct: purchased Eurofins DiscoverX Corporation
Method: as §1

IGF1R = target: T18, IGF1R (Homo sapiens, UniProt P08069); assay: Kinome scan; details: 1000 nM
T18 construct: purchased Eurofins DiscoverX Corporation
Method: as §1

PDGFRA = target: T19, PDGFRA (Homo sapiens, UniProt P16234); assay: Kinome scan; details: 1000 nM
T19 construct: purchased Eurofins DiscoverX Corporation
Method: as §1

MET = target: T20, MET (Homo sapiens, UniProt P08581); assay: Kinome scan; details: 1000 nM
T20 construct: purchased Eurofins DiscoverX Corporation
Method: as §1

PLK4 = target: T21, PLK4 (Homo sapiens, UniProt O00444); assay: Kinome scan; details: 1000 nM
T21 construct: purchased Eurofins DiscoverX Corporation
Method: as §1

EGFR(L858R) = target: T22, EGFR(L858R) (Homo sapiens, UniProt P00533, L858R); assay: Kinome scan; details: 1000 nM
T22 construct: purchased Eurofins DiscoverX Corporation
Method: as §1

FGFR2 = target: T23, FGFR2 (Homo sapiens, UniProt P21802); assay: Kinome scan; details: 1000 nM
T23 construct: purchased Eurofins DiscoverX Corporation
Method: as §1

BTK = target: T24, BTK (Homo sapiens, UniProt Q06187); assay: Kinome scan; details: 1000 nM
T24 construct: purchased Eurofins DiscoverX Corporation
T24 sequence (Q06187 whole entry): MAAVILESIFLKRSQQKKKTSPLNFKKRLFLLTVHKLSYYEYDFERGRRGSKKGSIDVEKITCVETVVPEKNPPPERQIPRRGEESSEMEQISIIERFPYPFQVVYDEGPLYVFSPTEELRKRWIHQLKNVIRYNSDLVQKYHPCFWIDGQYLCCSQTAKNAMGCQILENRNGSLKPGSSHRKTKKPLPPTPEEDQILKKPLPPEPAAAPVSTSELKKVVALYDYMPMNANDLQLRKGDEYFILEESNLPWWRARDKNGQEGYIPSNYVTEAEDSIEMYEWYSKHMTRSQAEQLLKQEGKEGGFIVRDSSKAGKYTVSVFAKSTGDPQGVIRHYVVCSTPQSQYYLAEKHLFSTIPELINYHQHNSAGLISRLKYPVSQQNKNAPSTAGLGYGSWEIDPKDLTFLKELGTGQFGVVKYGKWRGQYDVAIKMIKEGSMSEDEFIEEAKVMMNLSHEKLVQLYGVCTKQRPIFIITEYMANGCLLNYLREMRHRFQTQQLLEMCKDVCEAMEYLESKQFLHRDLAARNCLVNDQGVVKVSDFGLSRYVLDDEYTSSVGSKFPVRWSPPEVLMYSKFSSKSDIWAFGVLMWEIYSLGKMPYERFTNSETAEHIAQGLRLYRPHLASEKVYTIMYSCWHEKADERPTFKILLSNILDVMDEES
Method: as §1

JNK1 = target: T25, JNK1 (Homo sapiens, UniProt P45983); assay: Kinome scan; details: 1000 nM
T25 construct: purchased Eurofins DiscoverX Corporation
Method: as §1

[2] = target: T26, RSK2(Kin.Dom.1-N-terminal) (Homo sapiens, UniProt P51812); assay: Kinome scan; details: 1000 nM
T26 construct: RSK2(Kin.Dom.1-N-terminal); purchased Eurofins DiscoverX Corporation
T26 sequence (P51812 68-327 limits assumed): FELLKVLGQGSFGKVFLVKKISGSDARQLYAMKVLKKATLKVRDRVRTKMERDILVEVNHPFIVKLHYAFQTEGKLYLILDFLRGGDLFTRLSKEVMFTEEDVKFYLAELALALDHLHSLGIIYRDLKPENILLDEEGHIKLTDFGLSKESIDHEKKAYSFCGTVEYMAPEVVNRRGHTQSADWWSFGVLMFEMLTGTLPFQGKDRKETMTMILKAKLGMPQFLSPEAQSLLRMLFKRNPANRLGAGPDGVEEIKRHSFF
Method: as §1

[3] = target: T27, ABL1(T315I)-phosphorylated (Homo sapiens, UniProt P00519, T315I); assay: Kinome scan; details: 1000 nM
T27 construct: purchased Eurofins DiscoverX Corporation
Method: as §1

CDK2 = target: T28, CDK2 (Homo sapiens, UniProt P24941); assay: Kinome scan; details: 1000 nM
T28 construct: purchased Eurofins DiscoverX Corporation
Method: as §1

AKT2 = target: T29, AKT2 (Homo sapiens, UniProt P31751); assay: Kinome scan; details: 1000 nM
T29 construct: purchased Eurofins DiscoverX Corporation
Method: as §1

[4] = target: T30, JAK2(JH1domain-catalytic) (Homo sapiens, UniProt O60674); assay: Kinome scan; details: 1000 nM
T30 construct: JAK2(JH1domain-catalytic); purchased Eurofins DiscoverX Corporation
Method: as §1

ADCK3 = target: T31, ADCK3 (Homo sapiens, UniProt Q8NI60); assay: Kinome scan; details: 1000 nM
T31 construct: purchased Eurofins DiscoverX Corporation
Method: as §1

CDK7 = target: T32, CDK7 (Homo sapiens, UniProt P50613); assay: Kinome scan; details: 1000 nM
T32 construct: purchased Eurofins DiscoverX Corporation
Method: as §1

PCTK1 = target: T33, PCTK1 (Homo sapiens, UniProt Q00536); assay: Kinome scan; details: 1000 nM
T33 construct: purchased Eurofins DiscoverX Corporation
Method: as §1

ERBB4 = target: T34, ERBB4 (Homo sapiens, UniProt Q15303); assay: Kinome scan; details: 1000 nM
T34 construct: purchased Eurofins DiscoverX Corporation
Method: as §1

ERBB2 = target: T35, ERBB2 (Homo sapiens, UniProt P04626); assay: Kinome scan; details: 1000 nM
T35 construct: purchased Eurofins DiscoverX Corporation
Method: as §1

KIT(D816V) = target: T36, KIT(D816V) (Homo sapiens, UniProt P10721, D816V); assay: Kinome scan; details: 1000 nM
T36 construct: purchased Eurofins DiscoverX Corporation
Method: as §1

p38-beta = target: T37, p38-beta (Homo sapiens, UniProt Q15759); assay: Kinome scan; details: 1000 nM
T37 construct: purchased Eurofins DiscoverX Corporation
Method: as §1

CDK9 = target: T38, CDK9 (Homo sapiens, UniProt P50750); assay: Kinome scan; details: 1000 nM
T38 construct: purchased Eurofins DiscoverX Corporation
Method: as §1

[5] = target: T39, JAK3(JH1domain-catalytic) (Homo sapiens, UniProt P52333); assay: Kinome scan; details: 1000 nM
T39 construct: JAK3(JH1domain-catalytic); purchased Eurofins DiscoverX Corporation
Method: as §1

DYRK1A = target: T40, DYRK1A (Homo sapiens, UniProt Q13627); assay: Kinase inhibition profile, KINOMEscan 11-point dose response
T40 construct: purchased Eurofins DiscoverX Corporation

An inhibition at 1 µM (PIK3C2B) of 1%, an inhibition at 1 µM (AURKB) of 0% and an inhibition at 1 µM (GSK3B) of 0% were found for `C#Cc1cn([C@@H]2S[C@H](CO)[C@@H](O)[C@H]2O)c2ncnc(N)c12` [Compound 1g, (2R,3R,4S,5R)-2-(4-Amino-5-ethynyl-7H-pyrrolo[2,3-d]pyrimidin-7-yl)-5-(hydroxymethyl)tetrahydrothiophene-3,4-diol] in this work. For the same compound, the inhibition at 1 µM (CSNK1G2) was 54%, the inhibition at 1 µM (MAP3K4) was 29% and the inhibition at 1 µM [1] was 70%. The inhibition at 1 µM (ULK2) was 0%, the inhibition at 1 µM (PAK2) was 44% and the inhibition at 1 µM (PLK1) was 0%. It also gave a remaining binding at 1 µM (DYRK1B; 1 μM) of under 20%, an inhibition at 1 µM (DYRK1B; 1000 nM, DYRK1B) of 83% and an inhibition at 1 µM (AURKA) of 22%. It also gave an inhibition at 1 µM (CHEK1) of 0%, an inhibition at 1 µM (SNARK) of 0% and an inhibition at 1 µM (INSR) of 5%. It also gave an inhibition at 1 µM (CSF1R) of 20%, an inhibition at 1 µM (ROCK2) of 27% and an inhibition at 1 µM (MARK3) of 0%. It also gave an inhibition at 1 µM (IGF1R) of 7%, an inhibition at 1 µM (PDGFRA) of 0% and an inhibition at 1 µM (MET) of 4%. It also gave an inhibition at 1 µM (PLK4) of 0%, an inhibition at 1 µM (EGFR(L858R)) of 0% and an inhibition at 1 µM (FGFR2) of 12%. For the same compound, the inhibition at 1 µM (BTK) was 0%, the inhibition at 1 µM (JNK1) was 17% and the inhibition at 1 µM [2] was 55%. For the same compound, the inhibition at 1 µM [3] was 65%, the inhibition at 1 µM (CDK2) was 9% and the inhibition at 1 µM (AKT2) was 4%. The inhibition at 1 µM [4] was 35%, the inhibition at 1 µM (ADCK3) was 8% and the inhibition at 1 µM (CDK7) was 52.3%. The inhibition at 1 µM (PCTK1) was 0%, the inhibition at 1 µM (ERBB4) was 3% and the inhibition at 1 µM (ERBB2) was 15%. The inhibition at 1 µM (KIT(D816V)) was 22%, the inhibition at 1 µM (p38-beta) was 3% and the inhibition at 1 µM (CDK9) was 4%. The inhibition at 1 µM [5] was 0%, the IC50 (DYRK1A; 11-point 3-fold serial dilution) was 43 nM and the Ki (DYRK1A; by Cheng-Prusoff equation) was 86 nM.
